Here are results for six compounds from patent publication US20110003888A1, “HOPS EXTRACTION METHODS AND MIXTURES” (Bioactives, Inc., priority 2007, published 2011).

One data set is described as follows: in vitro. The note with it: human, Caco-2. The procedure: (§1) To test the permeability of xanthohumol across Caco-2 cell monolayers, Caco-2 cell monolayers were grown to confluence on collagen-coated, microporous, polycarbonate membranes in 12-well Costar Transwell® plates. Details of the plates and their certification are shown below in Table 3. The test article was also the aqueous xanthohumol formulation, and the dosing concentration was 2 μM in the assay buffer (HBSSg) as in the previous example. Cell monolayers were dosed on the apical side (A-to-B) or basolateral side (B-to-A) and incubated at 37° C. with 5% CO2 in a humidified incubator. Samples were taken from the donor chamber at 120 minutes, and samples from the receiver chamber were collected at 60 and 120 minutes. Each determination was performed in duplicate. Lucifer yellow permeability was also measured for each monolayer after being subjected to the test article to ensure no damage was inflicted to the cell monolayers during the permeability experiment. All samples were assayed for Xanthohumol by LC/MS/MS using electrospray ionization. The apparent permeability (Papp), and percent recovery were calculated as described above.

For the next data set, the target named is T1, Cyp1 A1 (Homo sapiens, UniProt P04798).
T1 sequence (P04798 1-512): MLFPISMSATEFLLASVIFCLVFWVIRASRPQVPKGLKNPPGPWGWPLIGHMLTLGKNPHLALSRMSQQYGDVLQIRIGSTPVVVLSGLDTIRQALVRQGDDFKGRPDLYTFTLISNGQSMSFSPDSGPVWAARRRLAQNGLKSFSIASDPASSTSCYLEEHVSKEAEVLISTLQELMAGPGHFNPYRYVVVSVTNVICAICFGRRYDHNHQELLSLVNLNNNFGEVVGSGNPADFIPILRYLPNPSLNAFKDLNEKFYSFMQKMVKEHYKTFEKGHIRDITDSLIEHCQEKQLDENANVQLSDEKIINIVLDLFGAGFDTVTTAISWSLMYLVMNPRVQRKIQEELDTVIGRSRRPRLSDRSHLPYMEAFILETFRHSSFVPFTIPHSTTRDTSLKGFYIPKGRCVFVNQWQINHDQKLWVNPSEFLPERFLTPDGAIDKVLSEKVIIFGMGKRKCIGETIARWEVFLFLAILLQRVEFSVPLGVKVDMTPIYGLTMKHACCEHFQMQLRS
The note with it: cDNA-expressed human Cyp1 A1; cited from earlier work.

The next data set addresses T2, Cyp1 A2 (Homo sapiens, UniProt P05177).
T2 sequence (P05177 1-516): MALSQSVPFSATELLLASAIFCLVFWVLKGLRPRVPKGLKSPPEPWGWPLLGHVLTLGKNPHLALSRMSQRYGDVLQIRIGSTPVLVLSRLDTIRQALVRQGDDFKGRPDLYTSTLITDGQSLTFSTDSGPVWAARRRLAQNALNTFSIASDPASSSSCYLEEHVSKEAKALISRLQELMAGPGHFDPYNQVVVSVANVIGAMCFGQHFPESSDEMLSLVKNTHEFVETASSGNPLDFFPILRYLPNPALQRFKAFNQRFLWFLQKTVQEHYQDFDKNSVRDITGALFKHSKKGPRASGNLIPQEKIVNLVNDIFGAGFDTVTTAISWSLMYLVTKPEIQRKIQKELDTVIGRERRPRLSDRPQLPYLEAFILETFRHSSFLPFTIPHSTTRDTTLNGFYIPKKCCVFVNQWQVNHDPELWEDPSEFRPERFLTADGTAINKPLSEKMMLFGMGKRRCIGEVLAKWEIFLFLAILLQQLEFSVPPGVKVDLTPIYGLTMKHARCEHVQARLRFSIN
The note with it: cDNA-expressed human Cyp1 A2; cited from earlier work.

A further data set concerns the target T3, Cyp1B1 (Homo sapiens, UniProt Q16678).
T3 sequence (Q16678 1-543): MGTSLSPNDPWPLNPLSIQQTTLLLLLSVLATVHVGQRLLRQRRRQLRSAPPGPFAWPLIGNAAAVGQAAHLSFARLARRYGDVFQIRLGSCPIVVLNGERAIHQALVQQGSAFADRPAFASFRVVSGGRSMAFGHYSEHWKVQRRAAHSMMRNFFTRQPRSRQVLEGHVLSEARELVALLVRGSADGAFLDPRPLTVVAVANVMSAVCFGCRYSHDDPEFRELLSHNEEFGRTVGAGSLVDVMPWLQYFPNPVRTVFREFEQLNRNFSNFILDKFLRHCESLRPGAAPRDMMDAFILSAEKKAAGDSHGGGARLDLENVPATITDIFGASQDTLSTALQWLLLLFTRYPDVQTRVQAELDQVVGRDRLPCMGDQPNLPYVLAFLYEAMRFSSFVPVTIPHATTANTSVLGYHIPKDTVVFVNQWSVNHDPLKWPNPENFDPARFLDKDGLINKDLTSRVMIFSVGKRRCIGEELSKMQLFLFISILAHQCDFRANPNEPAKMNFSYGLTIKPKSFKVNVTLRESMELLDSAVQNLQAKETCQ
As to conditions: cDNA-expressed human Cyp1B1; cited from earlier work.

Data set [1] relates to Caco-2 cell monolayers. As to the kind of experiment: Caco-2 Transwell plate certification with control compounds. The note with it: Caco-2 plate certification, TW12, passage 63, age 22 days. The procedure: as §1
For data set [2], the system named is Caco-2 cell monolayers. As to the kind of experiment: Permeability across Caco-2 cell monolayers. In kind it is in vitro ADME. How it is done: (§2) Percent Recovery=100×((Vr×Cr^final)+(Vd×Cd^final))/(Vd×C0) • Where: • dCr/dt is the slope of the cumulative concentration in the receiver compartment versus time in μM s^−1. • Vr is the volume of the receiver compartment in cm^3. • Vd is the volume of the donor compartment in cm^3. • A is the area of the cell-free insert (1.13 cm^2 for 12-well Transwell). • Cr^final is the cumulative receiver concentration in μM at the end of the incubation period. • Cd^final is the concentration of the donor in μM at the end of the incubation period. • C0 is the initial concentration of the dosing solution in μM.
(§3) Each determination was performed in duplicate.
On the technique in general: Passage across Caco-2 layers is used to estimate intestinal permeability.

The test system of the next data set is endothelial cells. The note with it: in vitro model, endothelial cells invading collagen gel and forming capillary-like tubes; cited from earlier work.
The subject of a further data set is inducible COX-2. The note with it: read-out: IC50, inhibition of cyclooxygenase; cited from earlier work.
Data set [3] can be described thus: Permeability through cell-free (blank) microporous membrane filter, non-specific binding assessment. In kind it is in vitro ADME. The note with it: not told, pH 7.4, cell-free filter; for Papp A→B at 120 min, 2 μM: xanthohumol gel formulation at 2 μM xanthohumol; for recovery at 120 min, 2 μM: xanthohumol gel formulation at 2 μM. How it is done: The permeability of the xanthohumol gel through a cell-free (blank) microporous 0.4 micron membrane filter was studied in order to determine the non-specific binding and cell-free diffusion Papp of the xanthohumol gel formulation. The xanthohumol gel formulation was assayed at a 2 μM xanthohumol concentration in Hanks buffer (Hanks Balanced Salt Solution (HBSSg) containing 10 mM HEPES and 15 mM glucose) at a pH of 7.4 in duplicate. Donor samples were collected at 120 minutes. Receiver samples were collected at 60 and 120 minutes. The apparent permeability coefficient, Papp, and percent recovery were calculated as follows:
as §2

Data set [4] in a line: Permeability across Caco-2 cell monolayers. The note with it: human. In kind it is in vitro ADME. The procedure: as §2, §3

As a reminder, the efflux ratio is the permeability from basolateral to apical divided by that in the opposite direction, in the common usage. As to `C[C@H]1O[C@@H](O[C@H]2[C@@H](O)C[C@H](O[C@H]3[C@@H](O)C[C@H](O[C@H]4CC[C@@]5(C)[C@H](CC[C@@H]6[C@@H]5C[C@@H](O)[C@]5(C)[C@@H](C7=CC(=O)OC7)CC[C@]65O)C4)O[C@@H]3C)O[C@@H]2C)C[C@H](O)[C@@H]1O` [Digoxin], the efflux ratio in the data set “in vitro” is 16.6.
As to `COc1cc(O)c(CC=C(C)C)c2c1C(=O)CC(c1ccc(O)cc1)O2` (stereo not shown) [isoxanthohumol], the “Inhibition of cytochrome P450 enzyme” value on Cyp1 A1, on Cyp1 A2 and on Cyp1B1 was “strongly inhibit” each time.
In general, Papp refers to a coefficient for how fast a substance crosses the barrier. Read a high Papp as fast passage. `CC(C)NCC(O)COc1cccc2ccccc12` (stereo not shown) [Propranolol] gave a Papp in the data set “in vitro” of 20.6 ×10⁻⁶ cm/s.
In turn, Lucifer Yellow [reference compound] registered an apparent permeability (Papp) in the data set on Caco-2 cell monolayers [1] of 0.13 ×10⁻⁶ cm/s. Also, the “Lucifer yellow Papp, post-experiment integrity control” value in the data set with Caco-2 cell monolayers [2] (all monolayers after exposure to test article) was below 0.8 ×10⁻⁶ cm/s.
For `CC(C)=CCc1c(O)cc(O)c2c1O[C@H](c1ccc(O)cc1)CC2=O` [8-prenylnaringenin], the “Inhibition of cytochrome P450 enzyme” value on Cyp1 A1, at Cyp1 A2 and at Cyp1B1 was “strongly inhibit” each time. Besides, in the data set on endothelial cells, the Effect on angiogenesis result is reported as “inhibits angiogenesis”.
As a reminder, the IC50 is the concentration that gives 50% inhibition. The term Papp A→B denotes the apparent permeability from the apical to the basolateral side of a cell layer. In general, Papp B→A refers to how fast a substance crosses the layer from the basolateral side. `COc1cc(O)c(CC=C(C)C)c(O)c1C(=O)/C=C/c1ccc(O)cc1` [Xanthohumol, xanthohumol]: the “Inhibition of cytochrome P450 enzyme” value at Cyp1 A1, on Cyp1 A2 and on Cyp1B1 was “strongly inhibit” each time. The half-maximal inhibitory concentration (IC50) with inducible COX-2 was 42 µM. Besides, the Papp A→B at 120 min, 2 μM in data set [3] (pH 7.4, Rep. 1) turned out to be 18.6 ×10⁻⁶ cm/s; in [3] (pH 7.4, Rep. 2) it was 17.1 ×10⁻⁶ cm/s; in data set [3] (pH 7.4, average N = 2), 17.9 ×10⁻⁶ cm/s; in data set [4] (Caco-2, pH 7.4, Papp), 0.84 ×10⁻⁶ cm/s. The recovery at 120 min, 2 μM in [3] (Rep. 1) was determined as 95%; in data set [3] (Rep. 2), 99%; in [3] (average N = 2) it was 97%. The efflux ratio at 120 min, 2 μM in data set [4] (Caco-2, pH 7.4) was determined as 2.1. For the same compound, in [4] (Caco-2, pH 7.4, Papp), the Papp B→A at 120 min, 2 μM is 1.36 ×10⁻⁶ cm/s. For the same compound, the “Significant Efflux” value in the data set on Caco-2 cell monolayers [2] (Caco-2) is given as “No”.
